Test in all cases: relative viability (nuclei count vs DMSO), 5 days (fraction); higher = more cells survive
Compound in the test “GSK126 + Alpelisib”: CC[C@H](C)N1C=C(C2=C(C=C(C=C21)C3=CN=C(C=C3)N4CCNCC4)C(=O)NCC5=C(C=C(NC5=O)C)C)C [GSK126] + Cc1nc(NC(=O)N2CCC[C@H]2C(N)=O)sc1-c1ccnc(C(C)(C)C(F)(F)F)c1 [Alpelisib] (partner 2 µM)
In a few lines: (§1)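 Lung cancer cell lines were seeded in 1536-well plates and dosed by pin tool the next day, with either a single drug or a fixed anchor-drug dose combined with five library-drug doses (not always all listed) spaced in √10 steps. Five days later, one step fixed the cells and stained their nuclei (final 0.05% Triton X-100, 1% formaldehyde, 1 ug/ml Hoechst), and nuclei were counted on 4× images. Relative viability is the nuclei count in treated wells divided by the count in vehicle wells, and each value is the median of duplicate plates.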

Compound in the test “GSK126 + Bortezomib”: CC[C@H](C)N1C=C(C2=C(C=C(C=C21)C3=CN=C(C=C3)N4CCNCC4)C(=O)NCC5=C(C=C(NC5=O)C)C)C [GSK126] + CC(C)C[C@H](NC(=O)[C@H](Cc1ccccc1)NC(=O)c1cnccn1)B(O)O [Bortezomib] (partner 0.002 µM)
In short, it runs like this:
as §1

Compound in the test “Carboplatin + Vorinostat”: C1CC(C1)(C(=O)O)C(=O)O.[NH2-].[NH2-].[Pt+2] [Carboplatin] + O=C(CCCCCCC(=O)Nc1ccccc1)NO [Vorinostat] (partner 1 µM)
In short, it runs like this:
as §1

Compound in the test “Carboplatin + AZD7762”: C1CC(C1)(C(=O)O)C(=O)O.[NH2-].[NH2-].[Pt+2] [Carboplatin] + NC(=O)Nc1cc(-c2cccc(F)c2)sc1C(=O)N[C@H]1CCCNC1 [AZD7762] (partner 0.2 µM)
In a few lines:
as §1

Take HCC-78: the relative viability with GSK126 + Alpelisib (first compound 0.08 µM) was determined as 0.413; with GSK126 + Alpelisib (first compound 0.253 µM), 0.304; with GSK126 + Alpelisib (first compound 0.8 µM), 0.287; in the test with GSK126 + Alpelisib (first compound 2.53 µM) it was 0.301; with GSK126 + Alpelisib (first compound 8 µM), 0.372; with GSK126 + Bortezomib (first compound 0.08 µM), 0.464. For the same cell line, the relative viability in the test with GSK126 + Bortezomib (first compound 0.253 µM) worked out at 0.466; with GSK126 + Bortezomib (first compound 0.8 µM) it was 0.374; with GSK126 + Bortezomib (first compound 2.53 µM), 0.562; with GSK126 + Bortezomib (first compound 8 µM), 0.389; with Carboplatin + Vorinostat (first compound 0.08 µM) it was 0.472; with Carboplatin + Vorinostat (first compound 0.253 µM), 0.403. Besides, the relative viability in the test with Carboplatin + Vorinostat (first compound 0.8 µM) amounted to 0.386; with Carboplatin + Vorinostat (first compound 2.53 µM), 0.378; with Carboplatin + Vorinostat (first compound 8 µM), 0.431; with Carboplatin + AZD7762 (first compound 0.08 µM) it was 0.744; with Carboplatin + AZD7762 (first compound 0.253 µM), 0.712; with Carboplatin + AZD7762 (first compound 0.8 µM), 0.656. Further, the results for the relative viability in the test with Carboplatin + AZD7762 (first compound 2.53 µM) and with Carboplatin + AZD7762 (first compound 8 µM) were 0.693 and 0.644, respectively.

Take HCC-366: the relative viability turned out to be 0.452 with GSK126 + Alpelisib (first compound 0.08 µM); 0.342 in the test with GSK126 + Alpelisib (first compound 0.253 µM); 0.381 in the test with GSK126 + Alpelisib (first compound 0.8 µM); 0.546 with GSK126 + Alpelisib (first compound 2.53 µM); 0.409 with GSK126 + Alpelisib (first compound 8 µM); 1.1 with GSK126 + Bortezomib (first compound 0.08 µM). The relative viability in the test with GSK126 + Bortezomib (first compound 0.253 µM) was 1.05; in the test with GSK126 + Bortezomib (first compound 0.8 µM) it was 1.03; with GSK126 + Bortezomib (first compound 2.53 µM), 1.06; in the test with GSK126 + Bortezomib (first compound 8 µM), 1.05; in the test with Carboplatin + Vorinostat (first compound 0.08 µM) it was 0.451; with Carboplatin + Vorinostat (first compound 0.253 µM), 0.311. For the same cell line, the relative viability with Carboplatin + Vorinostat (first compound 0.8 µM) stood at 0.317; with Carboplatin + Vorinostat (first compound 2.53 µM), 0.29; with Carboplatin + Vorinostat (first compound 8 µM) it was 0.114; with Carboplatin + AZD7762 (first compound 0.08 µM), 0.442; in the test with Carboplatin + AZD7762 (first compound 0.253 µM), 0.256; with Carboplatin + AZD7762 (first compound 0.8 µM), 0.155. The relative viability with Carboplatin + AZD7762 (first compound 2.53 µM) was found to be 0.126; in the test with Carboplatin + AZD7762 (first compound 8 µM) it was 0.0971.

In the case of HCC-827, the relative viability in the test with GSK126 + Alpelisib (first compound 0.08 µM) was 1.06; with GSK126 + Alpelisib (first compound 0.253 µM) it was 1; in the test with GSK126 + Alpelisib (first compound 0.8 µM), 1.03; with GSK126 + Alpelisib (first compound 2.53 µM), 0.997; with GSK126 + Alpelisib (first compound 8 µM), 0.982; with GSK126 + Bortezomib (first compound 0.08 µM) it was 1.07. Moreover, the relative viability with GSK126 + Bortezomib (first compound 0.253 µM) was 1.09; with GSK126 + Bortezomib (first compound 0.8 µM), 1.02; with GSK126 + Bortezomib (first compound 2.53 µM), 1.09; with GSK126 + Bortezomib (first compound 8 µM) it was 0.965; in the test with Carboplatin + Vorinostat (first compound 0.08 µM) it was 1.15; with Carboplatin + Vorinostat (first compound 0.253 µM) it was 0.9. The relative viability in the test with Carboplatin + Vorinostat (first compound 0.8 µM) came to 0.768; in the test with Carboplatin + Vorinostat (first compound 2.53 µM), 0.765; in the test with Carboplatin + Vorinostat (first compound 8 µM), 0.713; in the test with Carboplatin + AZD7762 (first compound 0.08 µM) it was 0.245; with Carboplatin + AZD7762 (first compound 0.253 µM), 0.204; in the test with Carboplatin + AZD7762 (first compound 0.8 µM), 0.213. In addition, the relative viability in the test with Carboplatin + AZD7762 (first compound 2.53 µM) turned out to be 0.182; with Carboplatin + AZD7762 (first compound 8 µM), 0.223.

Take HOP-62: the relative viability in the test with GSK126 + Alpelisib (first compound 0.08 µM) was determined as 0.998; with GSK126 + Alpelisib (first compound 0.253 µM), 1.14; with GSK126 + Alpelisib (first compound 0.8 µM) it was 0.974; with GSK126 + Alpelisib (first compound 2.53 µM), 0.727; with GSK126 + Alpelisib (first compound 8 µM), 0.917; with GSK126 + Bortezomib (first compound 0.08 µM) it was 0.645. Moreover, the relative viability with GSK126 + Bortezomib (first compound 0.253 µM) turned out to be 0.816; with GSK126 + Bortezomib (first compound 0.8 µM) it was 0.862; with GSK126 + Bortezomib (first compound 2.53 µM), 0.837; with GSK126 + Bortezomib (first compound 8 µM), 0.724; with Carboplatin + Vorinostat (first compound 0.08 µM), 0.654; with Carboplatin + Vorinostat (first compound 0.253 µM), 0.662. The relative viability in the test with Carboplatin + Vorinostat (first compound 0.8 µM) amounted to 0.635; with Carboplatin + Vorinostat (first compound 2.53 µM), 0.664; in the test with Carboplatin + Vorinostat (first compound 8 µM) it was 0.542; with Carboplatin + AZD7762 (first compound 0.08 µM) it was 0.793; with Carboplatin + AZD7762 (first compound 0.253 µM) it was 0.665; in the test with Carboplatin + AZD7762 (first compound 0.8 µM), 0.669. In addition, the relative viability is 0.608 with Carboplatin + AZD7762 (first compound 2.53 µM) and 0.497 with Carboplatin + AZD7762 (first compound 8 µM).

With LC-2-ad, the relative viability is 0.927 with GSK126 + Alpelisib (first compound 0.08 µM); 0.967 in the test with GSK126 + Alpelisib (first compound 0.253 µM); 0.773 in the test with GSK126 + Alpelisib (first compound 0.8 µM); 0.793 in the test with GSK126 + Alpelisib (first compound 2.53 µM); 0.9 with GSK126 + Alpelisib (first compound 8 µM); 1.03 with GSK126 + Bortezomib (first compound 0.08 µM). The relative viability with GSK126 + Bortezomib (first compound 0.253 µM) was found to be 1.04; with GSK126 + Bortezomib (first compound 0.8 µM), 0.935; with GSK126 + Bortezomib (first compound 2.53 µM), 1.02; with GSK126 + Bortezomib (first compound 8 µM), 0.986; with Carboplatin + Vorinostat (first compound 0.08 µM), 0.724; with Carboplatin + Vorinostat (first compound 0.253 µM) it was 0.746. Moreover, the relative viability stood at 0.659 with Carboplatin + Vorinostat (first compound 0.8 µM); 0.728 with Carboplatin + Vorinostat (first compound 2.53 µM); 0.594 with Carboplatin + Vorinostat (first compound 8 µM); 0.922 in the test with Carboplatin + AZD7762 (first compound 0.08 µM); 0.829 in the test with Carboplatin + AZD7762 (first compound 0.253 µM); 0.854 in the test with Carboplatin + AZD7762 (first compound 0.8 µM). For the same cell line, the relative viability with Carboplatin + AZD7762 (first compound 2.53 µM) was 0.851; with Carboplatin + AZD7762 (first compound 8 µM), 0.78.

For LCLC-97TM1, the relative viability with GSK126 + Alpelisib (first compound 0.08 µM) was found to be 0.254; with GSK126 + Alpelisib (first compound 0.8 µM) it was 0.22; with GSK126 + Alpelisib (first compound 2.53 µM), 0.374; with GSK126 + Alpelisib (first compound 8 µM), 0.217; with GSK126 + Bortezomib (first compound 0.08 µM), 0.563; with GSK126 + Bortezomib (first compound 0.253 µM), 0.586. The relative viability was 0.671 with GSK126 + Bortezomib (first compound 0.8 µM); 0.719 with GSK126 + Bortezomib (first compound 2.53 µM); 0.575 in the test with GSK126 + Bortezomib (first compound 8 µM); 0.753 with Carboplatin + Vorinostat (first compound 0.08 µM); 0.749 with Carboplatin + Vorinostat (first compound 0.253 µM); 0.661 in the test with Carboplatin + Vorinostat (first compound 0.8 µM). Also, the relative viability with Carboplatin + Vorinostat (first compound 2.53 µM) came out at 0.504; in the test with Carboplatin + Vorinostat (first compound 8 µM), 0.654; in the test with Carboplatin + AZD7762 (first compound 0.08 µM), 0.221; with Carboplatin + AZD7762 (first compound 0.253 µM), 0.336; with Carboplatin + AZD7762 (first compound 0.8 µM), 0.367; in the test with Carboplatin + AZD7762 (first compound 2.53 µM), 0.163. Besides, in the test with Carboplatin + AZD7762 (first compound 8 µM), the relative viability was 0.228.

As for LCLC-103H, the relative viability in the test with GSK126 + Alpelisib (first compound 0.08 µM) was found to be 0.953; with GSK126 + Alpelisib (first compound 0.253 µM), 1.02; in the test with GSK126 + Alpelisib (first compound 0.8 µM), 0.927; in the test with GSK126 + Alpelisib (first compound 2.53 µM), 0.992; with GSK126 + Alpelisib (first compound 8 µM), 1.03; with GSK126 + Bortezomib (first compound 0.08 µM), 1.23. Also, the relative viability was determined as 0.995 with GSK126 + Bortezomib (first compound 0.253 µM); 0.984 with GSK126 + Bortezomib (first compound 0.8 µM); 1.13 with GSK126 + Bortezomib (first compound 2.53 µM); 1.03 with GSK126 + Bortezomib (first compound 8 µM); 0.804 with Carboplatin + Vorinostat (first compound 0.08 µM); 0.785 with Carboplatin + Vorinostat (first compound 0.253 µM). The relative viability was found to be 0.72 with Carboplatin + Vorinostat (first compound 0.8 µM); 0.768 with Carboplatin + Vorinostat (first compound 2.53 µM); 0.692 with Carboplatin + Vorinostat (first compound 8 µM); 0.853 in the test with Carboplatin + AZD7762 (first compound 0.08 µM); 0.763 with Carboplatin + AZD7762 (first compound 0.253 µM); 0.802 with Carboplatin + AZD7762 (first compound 0.8 µM). Moreover, the relative viability with Carboplatin + AZD7762 (first compound 2.53 µM) and in the test with Carboplatin + AZD7762 (first compound 8 µM) was 0.806 each time.

(Values after the supplement of paper PMC10307832.)
